1 compound from US20250059187A1, “COVALENTLY BINDING INHIBITORS OF G12S, G12D AND/OR G12E MUTANTS OF K-RAS GTPASE” (The Regents of the University of California, priority 2021, published 2025) can be followed below.

Data set [1] addresses T1, K-Ras G12E (Homo sapiens, UniProt P01116, G12E).
T1 construct: human K-Ras (G12E, aa 1-169); 6xHis tag + TEV cleavage site (N, cleaved yes); made in house; host or cells: E. coli BL21(DE3)
Put plainly: Covalent modification of recombinant K-Ras(G12E) by whole-protein mass spectrometry. The format is binding. As to conditions: GDP and GppNHp state. On the procedure: (§1) Test compounds were prepared as 100× stock solutions in DMSO. K-Ras proteins were diluted with SEC Buffer (20 mM HEPES 7.5, 150 mM NaCl, 1 mM MgCl2) to 400 nM or 1 μM. In a typical reaction, 0.5 μL 100× compound stock was mixed with 50 μL diluted K-Ras protein, and the resulting mixture was incubated for the desired amount of time. The extent of modification was assessed by electrospray mass spectrometry using a Waters Xevo G2-XS system equipped with an Acquity UPLC BEH C4 1.7 μm column. The mobile phase was a linear gradient of 5-95% acetonitrile/water+0.05% formic acid. For kinetic measurements, a 2× compound solution was first prepared in SEC Buffer, which was then mixed with 400 nM K-Ras(G12D) protein at 1:1 (v/v) ratio. Injection time stamps were used to calculate elapsed time.

For the next data set, the target named is T2, wild type K-Ras (Homo sapiens, UniProt P01116).
T2 construct: human K-Ras (wildtype, aa 1-169); 6xHis tag + TEV cleavage site (N, cleaved yes); made in house; host or cells: E. coli BL21(DE3)
Put plainly: Covalent modification of test protein after incubation with compound. As to conditions: 24-h incubation with 100 μM compound at 23° C. at pH 7.5. It is filed as binding.

A further data set deals with T3, K-Ras(G13D) (Homo sapiens, UniProt P01116, G13D).
T3 construct: human K-Ras (G13D, aa 1-169); 6xHis tag + TEV cleavage site (N, cleaved yes); made in house; host or cells: E. coli BL21(DE3)
Nature of the data set: Covalent modification of recombinant K-Ras(G13D) by whole-protein mass spectrometry. The format is binding. As to conditions: GDP and GppNHp state. The procedure:
as §1

Data set [2] concerns non-G12D mutation cell lines. Nature of the data set: In-cell covalent labeling by Western blot, non-G12D cell lines. It is filed as cell-based. The procedure:
(§2) Cells were passed for at least two generations after cryorecovery before they were used for assays. All cell lines were tested mycoplasma negative using MycoAlert™ Mycoplasma Detection Kit (Lonza). When indicated, cells were treated with drugs at 40-60% confluency at a final DMSO concentration of 1%. At the end of treatment period, cells were placed on ice. Unless otherwise indicated, adherent cells were washed once with ice-cold PBS (1 mL), scraped with a spatula, and pelleted by centrifugation (500×g, 5 min). Suspension cells were pelleted by centrifugation (500×g, 5 min), washed with 1 mL ice-cold PBS, and pelleted again. Cells were lysed in RIPA buffer supplemented with protease and phosphatase inhibitors (cOmplete and phosSTOP, Roche) on ice for 10 min. For RBD pulldown experiments, cells were lysed in Co-IP Lysis Buffer in lieu of RIPA buffer. Lysates were clarified by high-speed centrifugation (19,000×g, 10 min). Concentrations of lysates were determined with protein BCA assay (Thermo Fisher) and adjusted to 2 mg/mL with additional RIPA buffer (or Co-IP Lysis Buffer). […]
(§3) Unless otherwise noted, SDS-PAGE was run with Novex 12% Bis-Tris gel (Invitrogen) in MES running buffer (Invitrogen) at 200 V for 60 min following the manufacturer's instructions. […] The membrane was washed three times with TBST (5 min each wash) and imaged on a Li-COR Odyssey fluorescence imager.

The subject of another data set is BaF3/K-Ras(G12D) cells. Put plainly: Growth inhibition of BaF3/K-Ras(G12D) cells. The format is cell-based, murine. Conditions: Mus musculus, read-out: IC50, growth of BaF3/K-Ras(G12D) cells. On the procedure: (§4) Cells were seeded into 96-well white flat bottom plates (1,000 cells/well) (Corning) and incubated overnight. Cells were treated with the indicated compounds in a nine-point threefold dilution series (100 μL final volume) and incubated for 72 h. Cell viability was assessed using a commercial CellTiter-Glo (CTG) luminescence-based assay (Promega). Briefly, the 96-well plates were equilibrated to room temperature before the addition of diluted CTG reagent […] (1:4 CTG reagent:PBS). Plates were placed on an orbital shaker for 30 min before recording luminescence using a Spark 20M (Tecan) plate reader.

Data set [3] concerns the target T1, K-Ras G12E. Nature of the data set: Covalent modification of test protein after incubation with compound. It is filed as binding. Conditions: 24-h incubation with 100 μM compound at 23° C. at pH 7.5.
Data set [4] concerns the target T4, K-Ras G12D (Homo sapiens, UniProt P01116, G12D).
T4 construct: human K-Ras (G12D, aa 1-169); 6xHis tag + TEV cleavage site (N, cleaved yes); made in house; host or cells: E. coli BL21(DE3)
The data set is described as above. It is filed as binding. As to conditions: 24-h incubation with 100 μM compound at 23° C. at pH 7.5.

The test system of data set [5] is SW1990 (homozygous KRAS^G12D/G12D). Nature of the data set: In-cell covalent labeling and signaling by Western blot, SW1990. The format is cell-based. The procedure:
as §2, §3

Data set [6] relates to Ba/F3 KRAS G12D cells + interleukin-3. Nature of the data set: Growth inhibition of Ba/F3 KRAS G12D cells co-treated with IL-3. It is filed as cell-based, murine. As to conditions: IL-3, 10 ng/mL. On the procedure: as §4
Data set [7] concerns non-G12D mutation cancer cell lines (H1299, HCT116, A549, A375). Nature of the data set: Growth inhibition of non-G12D mutation cancer cell lines. It is filed as cell-based. The procedure:
as §4

In data set [8] the test system is AsPC-1 (homozygous KRAS^G12D/G12D). Nature of the data set: In-cell covalent labeling by Western blot, AsPC-1. It is filed as cell-based. The procedure:
as §2, §3

Data set [9] relates to AGS cell line (heterozygous KRAS^G12D/WT). Put plainly: In-cell covalent labeling by Western blot, AGS. It is filed as cell-based. The procedure: as §2, §3
Data set [10] relates to KRAS G12D mutation cancer cell lines. Put plainly: Growth inhibition of KRAS G12D cancer cell lines. The format is cell-based. On the procedure: as §4
In data set [11] the target is T4, K-Ras G12D. Nature of the data set: Covalent modification of recombinant K-Ras(G12D) by whole-protein mass spectrometry. It is filed as binding. On the procedure:
as §1

In the case of `C#Cc1c(F)ccc2cc(O)cc(-c3ncc4c(N5C[C@H]6CC[C@@H](C5)N6C(=O)[C@@H]5OC(=O)C5(C)C)nc(OC[C@@]56CCCN5C[C@H](F)C6)nc4c3F)c12` [(R)-7], on K-Ras G12E [1], the “labeling of K-Ras G12E” value is “not that of WT, G12E, G12S, or G13D”. Also, the “% covalent modification of wild type K-Ras” value on wild type K-Ras stood at 0%. Besides, the “labeling of K-Ras G13D” value on K-Ras(G13D) is on record as “not that of WT, G12E, G12S, or G13D”. For the same compound, in [2], the “in-cell labeling of K-Ras” value is recorded as “none in non-G12D mutation cell lines”. Moreover, the IC50 in the data set with BaF3/K-Ras(G12D) cells stood at 0.073 ± 0.017 µM. The “% covalent modification of K-Ras G12E” value on K-Ras G12E [3] was determined as 0%. Moreover, at K-Ras G12D [4], the “% covalent modification of K-Ras G12D” value was determined as 100%. For the same compound, the “in-cell labeling of endogenous K-Ras(G12D)” value in data set [5] is listed as “labeled endogenous K-Ras(G12D) completely”. In addition, in data set [6], the “sensitivity of cells co-treated with interleukin-3” value was “lost sensitivity to (R)-7 up to 10 μM”. The “toxicity to non-G12D mutation cancer cell lines” value in data set [7] is “minimal toxicity to the latter cell lines up to 10 μM concentration”. For the same compound, in data set [8], the “in-cell labeling of endogenous K-Ras(G12D)” value is “labeled endogenous K-Ras(G12D) completely”. In addition, the “in-cell labeling of endogenous K-Ras” value in data set [9] is listed as “only half of the two alleles”. Further, in data set [10], the “growth of KRAS G12D cancer cell lines” value was “selectively inhibited growth of cancer cells lines harboring K-Ras(G12D) mutation”. For the same compound, at K-Ras G12D [11], the “time to complete labeling of K-Ras(G12D)·GDP” value is recorded as not above 30 min and the “time to complete labeling of K-Ras(G12D)·GppNHp” value is recorded as not above 300 min. The kinact/KI on K-Ras G12D [11] (read-out: kinact/KI against K-Ras(G12D)·GDP) came out at 11000 M⁻¹ s⁻¹.
